Converted amounts (≈) assume the structure as drawn. Read-outs that look alike come from different tables or passages of the source.
What was measured:
[1] = tested on: Aspergillus niger (ANIG); test: Minimum inhibitory concentration (MIC), broth two-fold serial dilution test; type: cell-based; details: Aspergillus niger, IIIB, trypticase soy broth (complex media); Table IIIb; read-out: MIC (F) ANIG
[2] = tested on: Aureobasidium pullulans (APUL); test: as above; type: cell-based; details: Aureobasidium pullulans, IIIB, trypticase soy broth (complex media); Table IIIb; read-out: MIC (F) APUL
[3] = tested on: MIXED COOLING TOWER ALGAE; test: MIC test against mixed cooling tower algae; type: cell-based, green algae and blue-green bacteria; details: Table VIII
Experimental: The algae culture contains green algae and blue-green bacteria, and is obtained from a cooling tower in Spring House, Pennsylvania. The algae culture is grown in Allen's medium on a rotary shaker under flourescent room lighting. This culture is further diluted with Allen's medium and then added to the test vessel.

[4] = tested on: 8 FUNGI; test: Microbicides secondary test against 8 fungi on Mycophile Agar at pH 5.0 (Table VI); type: cell-based; set-up: key: 1= no growth; 0= growth of the indicated fungi at dose indicated in ppm; details: for ANIG growth: Aspergillus niger; for APUL growth: Aureobasidium pullulans; for CGLO growth: Chaetomium globosum; for CRES growth: Cladosporium resinae; for GTRA growth: Gloeophyllum trabeum; for PFUN growth: Penicillium funiculosum; for RRUB growth: Rhodotorula rubra; for SSER growth: Sacharomyces cerevisiae
From the text: The results of the minimum inhibitory concentration (MIC) tests of compounds of this invention are shown in Tables IIIa IIIb, IIIc, V, VI, VII, and VIII against the microorganisms shown in Table IX.

[5] = tested on: THREE FUNGI; test: MIC test against three fungi in Mycophile Broth, pH 5.0, read after 8 days (Table VII); type: cell-based; details: 192 h, serial dilutions from 50 ppm, read after 8 days of incubation
[6] = tested on: Pseudomonas fluorescens (PSFL); test: Minimum inhibitory concentration (MIC), broth two-fold serial dilution test; details: Pseudomonas fluorescens, IIIB, read-out: MIC (G-) PSFL, trypticase soy broth (complex media); Table IIIb
[7] = tested on: Pseudomonas aerugenosa (PSAE); test: as above; details: Pseudomonas, IIIB, read-out: MIC (G-) PSAE, trypticase soy broth (complex media); Table IIIb
From the text: When the test is ready to be done, each vessel in the dilution series, except the first vessel, contains an equal volume of compound free broth. The first vessel contains twice the volume of broth with the starting concentration of test compound. One half of the broth from the first vessel is transferred to the second vessel. After being mixed, one half the resulting volume is removed from the second vessel and transferred to the third vessel. The entire cycle is repeated sufficiently to give a series of concentrations amounting to 500, 250, 125, 63, 31, 16, 8, and 4 ppm (or 100, 50, 25, 12.5, 6.2, 3.1, 1.6, and 0.8), respectively.
Each vessel is then inoculated with a cell suspension of the appropriate test organism. Bacteria are grown in broth, fungi on agar slants for a time and at a temperature appropriate to the species being tested, and algae are a mixture of green algae and blue-green bacteria grown in a nutrient media. At the end of the growth period, in the case of bacteria, the broth is vortexed to disperse the cells.
The vessels are then incubated at the appropriate temperature. After the incubation, the vessels are examined for growth/no growth.

[8] = tested on: Escherichia coli (ECOL); test: as above; details: Escherichia coli, IIIB, read-out: MIC (G-) ECOL, trypticase soy broth (complex media); Table IIIb
[9] = tested on: Staphylococcus aureus (SAUR); test: as above; details: Staphylococcus aureus, IIIB, read-out: MIC (G+) SAUR, trypticase soy broth (complex media); Table IIIb
[10] = Aspergillus niger, read-out: MIC ANIG
[11] = Aureobasidium pullulans, read-out: MIC APUL
[12] = Gloeophyllum trabeum, read-out: MIC GTRA

Structure (SMILES): O=CNCC(=O)OCC#CI [Compound 32, N-formylglycine iodopropargyl ester]
- MIC [1]: 2 µg/mL (≈ 7.49 µM)
- MIC [2]: 8 µg/mL (≈ 30 µM)
- MIC [3]: 6.2 µg/mL (≈ 23.2 µM)
- ANIG growth ([4]; 0.2 PPM): 0
- ANIG growth ([4]; 1.0 PPM): 0
- ANIG growth ([4]; 2.5 PPM): 0
- ANIG growth ([4]; 25 PPM): 1
- APUL growth ([4]; 0.2 PPM): 0
- APUL growth ([4]; 1.0 PPM): 0
- APUL growth ([4]; 2.5 PPM): 0
- APUL growth ([4]; 25 PPM): 1
- CGLO growth ([4]; 0.2 PPM): 0
- CGLO growth ([4]; 1.0 PPM): 0
- CGLO growth ([4]; 2.5 PPM): 0
- CGLO growth ([4]; 25 PPM): 1
- CRES growth ([4]; 0.2 PPM): 0
- CRES growth ([4]; 1.0 PPM): 0
- CRES growth ([4]; 2.5 PPM): 0
- CRES growth ([4]; 25 PPM): 1
- GTRA growth ([4]; 0.2 PPM): 0
- GTRA growth ([4]; 1.0 PPM): 0
- GTRA growth ([4]; 2.5 PPM): 0
- GTRA growth ([4]; 25 PPM): 1
- PFUN growth ([4]; 0.2 PPM): 0
- PFUN growth ([4]; 1.0 PPM): 0
- PFUN growth ([4]; 2.5 PPM): 0
- PFUN growth ([4]; 25 PPM): 1
- RRUB growth ([4]; 0.2 PPM): 0
- RRUB growth ([4]; 1.0 PPM): 0
- RRUB growth ([4]; 2.5 PPM): 0
- RRUB growth ([4]; 25 PPM): 1
- SSER growth ([4]; 0.2 PPM): 0
- SSER growth ([4]; 1.0 PPM): 0
- SSER growth ([4]; 2.5 PPM): 0
- SSER growth ([4]; 25 PPM): 1
- MIC [5, 10]: 12.5 µg/mL (≈ 46.8 µM)
- MIC [5, 11]: 25 µg/mL (≈ 93.6 µM)
- MIC [5, 12]: 3.2 µg/mL (≈ 12 µM)
- MIC [6]: 32 µg/mL (≈ 120 µM)
- MIC [7]: 63 µg/mL (≈ 236 µM)
- MIC [8]: 63 µg/mL (≈ 236 µM)
- MIC [9]: 63 µg/mL (≈ 236 µM)

Structure (SMILES): CCCCCCCC(=O)NCC(=O)OCC#CI [Compound 34, N-octanoylglycine iodopropargyl ester]
- MIC [1]: < 0.12 µg/mL
- MIC [2]: 8 µg/mL (≈ 21.9 µM)
- MIC [3]: 12.5 µg/mL (≈ 34.2 µM)
- ANIG growth ([4]; 0.2 PPM): 0
- ANIG growth ([4]; 1.0 PPM): 1
- ANIG growth ([4]; 2.5 PPM): 1
- ANIG growth ([4]; 25 PPM): 1
- APUL growth ([4]; 0.2 PPM): 0
- APUL growth ([4]; 1.0 PPM): 0
- APUL growth ([4]; 2.5 PPM): 0
- APUL growth ([4]; 25 PPM): 1
- CGLO growth ([4]; 0.2 PPM): 0
- CGLO growth ([4]; 1.0 PPM): 1
- CGLO growth ([4]; 2.5 PPM): 0
- CGLO growth ([4]; 25 PPM): 1
- CRES growth ([4]; 0.2 PPM): 0
- CRES growth ([4]; 1.0 PPM): 0
- CRES growth ([4]; 2.5 PPM): 0
- CRES growth ([4]; 25 PPM): 1
- GTRA growth ([4]; 0.2 PPM): 0
- GTRA growth ([4]; 1.0 PPM): 1
- GTRA growth ([4]; 2.5 PPM): 1
- GTRA growth ([4]; 25 PPM): 1
- PFUN growth ([4]; 0.2 PPM): 0
- PFUN growth ([4]; 1.0 PPM): 0
- PFUN growth ([4]; 2.5 PPM): 1
- PFUN growth ([4]; 25 PPM): 1
- RRUB growth ([4]; 0.2 PPM): 0
- RRUB growth ([4]; 1.0 PPM): 0
- RRUB growth ([4]; 2.5 PPM): 0
- RRUB growth ([4]; 25 PPM): 1
- SSER growth ([4]; 0.2 PPM): 0
- SSER growth ([4]; 1.0 PPM): 0
- SSER growth ([4]; 2.5 PPM): 0
- SSER growth ([4]; 25 PPM): 1
- MIC [5, 10]: 1.6 µg/mL (≈ 4.38 µM)
- MIC [5, 11]: 12.5 µg/mL (≈ 34.2 µM)
- MIC [5, 12]: 3.2 µg/mL (≈ 8.76 µM)
- MIC [6]: 63 µg/mL (≈ 173 µM)
- MIC [7]: 125 µg/mL (≈ 342 µM)
- MIC [8]: > 250 µg/mL
- MIC [9]: 250 µg/mL (≈ 685 µM)

Structure (SMILES): C/C=C/C=C/C(=O)NCC(=O)OCC#CI [Compound 35, N-sorbylglycine iodopropargyl ester]
- MIC [1]: 2 µg/mL (≈ 6 µM)
- MIC [2]: 4 µg/mL (≈ 12 µM)
- MIC [3]: 6.2 µg/mL (≈ 18.6 µM)
- ANIG growth ([4]; 0.2 PPM): 0
- ANIG growth ([4]; 1.0 PPM): 1
- ANIG growth ([4]; 2.5 PPM): 1
- ANIG growth ([4]; 25 PPM): 1
- APUL growth ([4]; 0.2 PPM): 0
- APUL growth ([4]; 1.0 PPM): 0
- APUL growth ([4]; 2.5 PPM): 0
- APUL growth ([4]; 25 PPM): 1
- CGLO growth ([4]; 0.2 PPM): 0
- CGLO growth ([4]; 1.0 PPM): 1
- CGLO growth ([4]; 2.5 PPM): 1
- CGLO growth ([4]; 25 PPM): 1
- CRES growth ([4]; 0.2 PPM): 0
- CRES growth ([4]; 1.0 PPM): 0
- CRES growth ([4]; 2.5 PPM): 0
- CRES growth ([4]; 25 PPM): 1
- GTRA growth ([4]; 0.2 PPM): 0
- GTRA growth ([4]; 1.0 PPM): 1
- GTRA growth ([4]; 2.5 PPM): 1
- GTRA growth ([4]; 25 PPM): 1
- PFUN growth ([4]; 0.2 PPM): 0
- PFUN growth ([4]; 1.0 PPM): 0
- PFUN growth ([4]; 2.5 PPM): 1
- PFUN growth ([4]; 25 PPM): 1
- RRUB growth ([4]; 0.2 PPM): 0
- RRUB growth ([4]; 1.0 PPM): 0
- RRUB growth ([4]; 2.5 PPM): 1
- RRUB growth ([4]; 25 PPM): 1
- SSER growth ([4]; 0.2 PPM): 0
- SSER growth ([4]; 1.0 PPM): 0
- SSER growth ([4]; 2.5 PPM): 0
- SSER growth ([4]; 25 PPM): 1
- MIC [5, 10]: 1.6 µg/mL (≈ 4.8 µM)
- MIC [5, 11]: 6.2 µg/mL (≈ 18.6 µM)
- MIC [5, 12]: 0.4 µg/mL (≈ 1.2 µM)
- MIC [6]: 63 µg/mL (≈ 189 µM)
- MIC [7]: 125 µg/mL (≈ 375 µM)
- MIC [8]: 125 µg/mL (≈ 375 µM)
- MIC [9]: 63 µg/mL (≈ 189 µM)

From patent EP0414533A1, “Use of iodopropargyl esters of alpha-amino acid derivatives as antimicrobial agents” (ROHM AND HAAS COMPANY, priority 1989, dated 1991)
